Measurements from patent US20150335678A1, “METHOD OF ACTIVATING STEM CELLS IN AN ANIMAL AND THE USE OF CHLORINE DIOXIDE FOR PREPARING MEDICINES FOR ACTIVATING STEM CELLS IN AN ANIMAL” (priority 2012, published 2015).

Experiments:
[1] = tested on: CD34-positive/CD31-positive mononuclear cells; test: CD34-positive/CD31-positive mononuclear cells in peripheral blood of lower limb DVT patients, flow cytometry; format: in vivo, human; settings: before administration 0.28 ± 0.30, diluted solution 10 ml/body/day femoral artery puncture, 14 days
From the text: The subjects consisted of 14 male and 6 female lower limb DVT patients with the unilateral limb suffer from the illness, aged from 59 to 76 years old (average age: 67.2 years old). The purpose of the clinical test was explained to all subjects and their consent was obtained before conducting the clinical test.
The first solution was a mixed solution made of sodium chlorite with the concentration of 7.47% and sodium chloride with the concentration of 1.59% with deionized water; the second solution was made of citric acid with the concentration of 16.7% with deionized water. Same volume of solutions were taken out from different vessels with different volumes and mixed up. […]
Five ml of peripheral blood was collected from the median cubital vein of the forearm of each patient using low molecular weight heparin anticoagulant before administration (before initial administration) and on day 7 and 14 after administration, and the collected blood was immediately stored at 4° C. and measured within 6 hours after collection. […]
CD34-positive mononuclear cells/CD31-positive mononuclear cells were isolated by double immunofluorescent using flow cytometry. […] Next, CD34/CD31-positive mononuclear cells were isolated and counted by flow cytometry. The ratio (%) of CD34/CD 31-positive mononuclear cells among the mononuclear cells was calculated according to the following formula. […]

[2] = tested on: nestin-positive cells (neural stem cells); test: Nestin-positive cells in the SVZ region, immunohistochemical stain; format: in vivo, Sprague-Dawley rats; settings: for number of nestin-positive cells in the SVZ region (mean±SD): diluted solution via carotid artery once a day, ten days
Procedure: Male Sprague-Dawley rats with the age of 12 weeks and weight of 250^˜280 g were used in the experiment after acclimating for a week.
A middle cerebral artery occlusion model was first established in compliance with the method of Longa E Z et al. (Longa E Z, et al. Reversible middle cerebral artery occlusion without craniectomy in rats. Stroke 20:84-91, 1989). More specifically, 0.36 g/kg of 10% chloral hydrate was administered intraperitoneally to rats which had been fasted for 12 hours (although given free access to water) to anesthetize the rats. Next, a midline incision was made in the neck to expose the right common carotid artery. Then, the internal carotid artery and external carotid artery were separated, the posterior carotid artery, which is a branch of the external carotid artery, and the thyroidea arteria were coagulated and severed, the external carotid artery was ligated at the branch of the lingual artery and maxillary artery, a small puncture was formed in the external carotid artery, 4-0 Nylon suture was passed through the common carotid artery from the puncture, and gradually inserted into the internal carotid artery until there was resistance. The length of the Nylon suture was about 18^˜20 mm from the branch of the common carotid artery. As a result of occluding the middle cerebral artery with Nylon suture, an ischemic state was applied for 2 hours to create a middle cerebral artery occlusion model.
A cerebral ischemia/reperfusion injury model was established by removing the Nylon suture from the middle cerebral artery of the occlusion model and following reperfusion of blood.
The first solution was a mixed solution made of sodium chlorite with the concentration of 7.47% and sodium chloride with the concentration of 1.59% with deionized water; the second solution was made of citric acid with the concentration of 16.7% with deionized water. Same volume of solutions were taken out from different vessels with different volumes and mixed up. Allow the solution to mix for 3-5 minutes and dilute it five times with normal saline, and then filter it with 0.22 μm filter membrane of double-deck. The solution was immediately put into injector. The solution was prepared once being used.
Treatment group (120 rats): A cerebral ischemia/reperfusion injury model was established for the rats already. To administer chlorine dioxide solution everytime that prepared from procedure (3) through carotid artery after the second day the model has established, once a day for total ten days.
Ten rats of each group were autopsied on day 7, 14 and 21 after the model established, respectively (total animals are 30 rats from each group). After preparation of tissue specimens, the neural stem cells were counted under a microscope.
More specifically, rat frozen brain sections were prepared on day 7, 14 and 21 after the model established, and the presence of nestin-positive cells in the subventricular zone (SVZ) was measured by immunohistochemical stain using the marker of nestin expressed on the neural stem cells. The presence of nestin-positive cells was analyzed using mouse anti-rat nestin monoclonal antibody.
BRt(%)=(Bt−St)/(Mt−St)×100

Ankylosing spondylitis = Ankylosing spondylitis patients: BASRI, Harris hip score, BASDAI, BASFI, ESR, CRP (Example 6); settings: for BASDAI: before treatment 6.4 ± 1.8; for BASFI: before treatment 7.3 ± 1.6; for CRP: before treatment 17.6 ± 4.2; for ESR: before treatment 29.4 ± 9.8; for BASRI Staging: before treatment 45 ± 5; for Harris hip score: before treatment 82 ± 6
Procedure: The first solution was a mixed solution made of sodium chlorite with the concentration of 7.47% and sodium chloride with the concentration of 1.59% with deionized water; the second solution was made of citric acid with the concentration of 16.7% with deionized water. Same volume of solutions were taken out from different vessels with different volume and put into the suitable glass or plastic cups prepared. Allow the solution to mix for 3-5 minutes and then filter the solution with 0.22 μm filter membrane of double-deck, dimethyl sulfoxide was added in the ratio of 1:1. The solution was smeared over the region immediately and repeatedly, once a day for consecutive three weeks. The administration was stopped for a week, and then began the treatment for consecutive three weeks, stop the drug for a week. The medicine was repeated for four cycles. Clean and disinfect the area before administration and conduct local anesthetic 30 minutes before operation. To use corresponding amount of solution according to different regions, varying from 1-10 ml/100 cm^2.
The subjects consisted of 8 male and 4 female AS patients aged from 18 to 40 years old (average age: 26 years old).
Mean index: the index of X ray of the hip joints:
Stage I: suspicious change, local joint space may become narrower, 25 points;
Stage II: mildly abnormal, joint space becomes narrower obviously, the space>2 mm, 50 points;
Stage III: moderately abnormal, joint space becomes narrow, and the space <2 mm or the local joint space disappears, articular surfaces <2 mm, 75 points;
Stage IV: severe abnormal, bone deformation, articular surfaces >2 cm, 100 points.
If two of the three symptoms, namely, erosion and damage, syndesmophyte formation, arthrokatadysis appear during stage I and II, it should increase a level accordingly. BASRI evaluation was given according to different levels. Harris score: full score is 100 points, including pain degree of hip joints (44 points), function of hip joints (47 points), degree of lower limb malformation (4 points), range of activity of hip joints (5 points). Corresponding scores were given according to degrees. BASFI, BASDAI, ESR, CRP were applied in evaluating disease activity and function.

[3] = 12 AS patients, topical with DMSO
[4] = the sixth month, 12 AS patients, topical with DMSO
[5] = the third month, 12 AS patients, topical with DMSO

[O][Cl+][O-] [chlorine dioxide solution, chlorine dioxide]
CD34-Positive/CD31-Positive Mononuclear Cells (ratio among mononuclear cells, mean±SD) ([1]; Day 7 after administration, n=20): 0.85 ± 0.51 %
CD34-Positive/CD31-Positive Mononuclear Cells (ratio among mononuclear cells, mean±SD) ([1]; Day 14 after administration, n=15): 1.1 ± 0.65 %
BRt: nestin-positive cells in treatment group relative to model group = 100%, (Bt-St)/(Mt-St)x100 ([2]; Day 7): 157.4%
number of nestin-positive cells in the SVZ region (mean±SD) ([2]; Day 7 after model established, model group 210.5 ± 22.3, sham 45.6 ± 5.69): 305.2 ± 30.6 No. cells/mm2
BRt: nestin-positive cells in treatment group relative to model group = 100%, (Bt-St)/(Mt-St)x100 ([2]; Day 14): 150.2%
number of nestin-positive cells in the SVZ region (mean±SD) ([2]; Day 14, model group 74.5 ± 13.4, sham 13.2 ± 1.64): 105.3 ± 15.4 No. cells/mm2
BRt: nestin-positive cells in treatment group relative to model group = 100%, (Bt-St)/(Mt-St)x100 ([2]; Day 21): 138.5%
number of nestin-positive cells in the SVZ region (mean±SD) ([2]; Day 21, model group 46.2 ± 6.31, sham 1.99 ± 1.09): 63.2 ± 7.55 No. cells/mm2
time until pain and itch during administration disappear completely (Ankylosing spondylitis; [3]): after an hour
tolerance (Ankylosing spondylitis; [3]): without local or systemic anaphylactic reaction
change of BASRI staging of the involved hip joints vs before administration (Ankylosing spondylitis; six months after administration): reduced a level
BASDAI (Ankylosing spondylitis; [4]): 3.0 ± 1.2
BASFI (Ankylosing spondylitis; [4]): 2.9 ± 1.1
CRP (Ankylosing spondylitis; [4]): 1.2 ± 0.6
ESR (Ankylosing spondylitis; [4]): 9.1 ± 6.8
BASRI Staging (Ankylosing spondylitis; [4]): 25 ± 8
Harris hip score (Ankylosing spondylitis; [4]): 32 ± 4
BASDAI (Ankylosing spondylitis; [5]): 3.6 ± 1.5
BASFI (Ankylosing spondylitis; [5]): 3.3 ± 1.4
CRP (Ankylosing spondylitis; [5]): 6.3 ± 3.5
ESR (Ankylosing spondylitis; [5]): 11.8 ± 7.6
BASRI Staging (Ankylosing spondylitis; the third month, 12 AS patients, NaClO2 7.47% + citric acid 16.7% 1:1, DMSO 1:1, smeared once a day, three weeks on/one week off, four cycles): 30 ± 6
Harris hip score (Ankylosing spondylitis; [5]): 49 ± 5
change of BASRI staging of the involved hip joints vs before administration (Ankylosing spondylitis; three months after administration): reduced half level
